Data from ChEMBL document CHEMBL1201862, “PubChem BioAssay data set” (2004).
Where “and” joins values, the source holds several entries; their conditions need not be identical. Identical values can stand only once.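 48-hour exposure; five concentrations; linearly interpolated endpoints. Here, GI50 denotes the concentration required for 50% inhibition of growth.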 Calls of active or inactive are those of the source. Cut-off read from the data, not from the text of the source: active = GI50 up to about 1.1 µM and inactive = higher.

How the values were obtained:
Assay in all cases: NCI-60 cell line screen, 48 h
SF-268 = system: SF-268
SK-MEL-2 = system: SK-MEL-2
SW-620 = system: SW-620
HCT-116 = system: HCT-116
RPMI-8226 = system: RPMI-8226
HT-29 = system: HT-29
HCC 2998 = system: HCC 2998
UO-31 = system: UO-31
SF-539 = system: SF-539
KM12 = system: KM12
TK-10 = system: TK-10
U-251 = system: U-251
IGROV-1 = system: IGROV-1
OVCAR-5 = system: OVCAR-5
786-0 = system: 786-0
EKVX = system: EKVX

SMILES | GI50 (SF-268) | GI50 (SK-MEL-2) | GI50 (SW-620) | GI50 (HCT-116) | GI50 (RPMI-8226) | GI50 (HT-29) | GI50 (HCC 2998) | GI50 (UO-31) | GI50 (SF-539) | GI50 (KM12) | GI50 (TK-10) | GI50 (U-251) | GI50 (IGROV-1) | GI50 (OVCAR-5) | GI50 (786-0) | GI50 (EKVX)
COc1c(Cl)c(Cl)c(OC)c2c1C(=O)C=CC2=O | 15.6 µM (inactive) | 17.3 µM (inactive) | 16.8 µM (inactive) | 17.8 µM (inactive) | 18.2 µM (inactive) | 29.9 µM (inactive) | 60.3 µM (inactive) | 17.8 µM (inactive) | 20 µM (inactive) | 17.5 µM (inactive) | 20.2 µM (inactive) | 20.7 µM (inactive) | 24.7 µM (inactive) | 35.5 µM (inactive) | 17.1 µM (inactive) | 17.4 µM (inactive)
CCCN(CCC)c1c([N+](=O)[O-])cc(C(=O)N(CCO)CCO)cc1[N+](=O)[O-] | > 100 µM (inactive) | > 100 µM (inactive) |  | > 100 µM (inactive) | > 100 µM (inactive) | > 100 µM (inactive) | > 100 µM (inactive) | > 100 µM (inactive) | > 100 µM (inactive) | > 100 µM (inactive) | > 100 µM (inactive) | > 100 µM (inactive) | > 100 µM (inactive) | > 100 µM (inactive) | > 100 µM (inactive) | 57.4 µM (inactive)
CCOc1ccc(NC(=O)/C(=C/c2ccccc2)C(C)=O)cc1 | 11.3 µM (inactive) | 13.2 µM (inactive) | 13.2 µM (inactive) | 4.94 µM (inactive) | 2.94 µM (inactive) | 10.3 µM (inactive) | 13.3 µM (inactive) | 9.66 µM (inactive) | 10.1 µM (inactive) | 7.1 µM (inactive) | 17.3 µM (inactive) | 12.6 µM (inactive) | 10.2 µM (inactive) | 17.6 µM (inactive) | 12.2 µM (inactive) | 17.8 µM (inactive)
C[N+](C)(C)CC(=O)N/N=C(/C(=O)Nc1ccc(Br)cc1)C1C(=O)NC(=O)NC1=O | > 100 µM (inactive) | > 100 µM (inactive) | > 100 µM (inactive) | > 100 µM (inactive) | > 100 µM (inactive) | > 100 µM (inactive) | > 100 µM (inactive) | > 100 µM (inactive) | > 100 µM (inactive) | > 100 µM (inactive) | > 100 µM (inactive) | > 100 µM (inactive) | > 100 µM (inactive) | > 100 µM (inactive) | > 100 µM (inactive) | > 100 µM (inactive)
O=C(Cc1ccc(F)cc1)NC1=C(Cl)C(=O)c2ccccc2C1=O | 4.05 µM (inactive) | 2.43 µM (inactive) | 2.24 µM (inactive) | 2.36 µM (inactive) | 0.262 µM (active) | 17.3 µM (inactive) | 4.22 µM (inactive) | 2.51 µM (inactive) | 2.24 µM (inactive) | 3.52 µM (inactive) | 6.9 µM (inactive) | 3.07 µM (inactive) | 2.61 µM (inactive) | 3.85 µM (inactive) | 6.58 µM (inactive) | 3.65 µM (inactive)
COc1ccc2nc(NC(=O)C(=O)CC(=O)c3ccc([N+](=O)[O-])cc3)sc2c1 | > 100 µM (inactive) | > 100 µM (inactive) | > 100 µM (inactive) | > 100 µM (inactive) | > 100 µM (inactive) | > 100 µM (inactive) | > 100 µM (inactive) | 50.7 µM (inactive) | > 100 µM (inactive) | > 100 µM (inactive) |  | > 100 µM (inactive) | > 100 µM (inactive) | > 100 µM (inactive) | > 100 µM (inactive) | > 100 µM (inactive)
Cc1cc(C)c([O-])c(-[n+]2c(-c3ccccc3)cc(-c3ccccc3)cc2-c2ccccc2)c1 | 7.82 µM (inactive) | 2.88 µM (inactive) | 4.1 µM (inactive) | 1.63 µM (inactive) | 2.79 µM (inactive) | 2.98 µM (inactive) | 3.51 µM (inactive) | 18.9 µM (inactive) | 11.2 µM (inactive) | 3.21 µM (inactive) | 6.22 µM (inactive) | 3.38 µM (inactive) | 4.04 µM (inactive) | 4.49 µM (inactive) | 6.78 µM (inactive) | 8.07 µM (inactive)
C[N+](C)(C)CCc1ccccc1 | > 100 µM (inactive) | > 100 µM (inactive) | > 100 µM (inactive) | > 100 µM (inactive) | > 100 µM (inactive) | > 100 µM (inactive) | > 100 µM (inactive) | > 100 µM (inactive) | > 100 µM (inactive) | > 100 µM (inactive) | > 100 µM (inactive) | > 100 µM (inactive) | > 100 µM (inactive) | > 100 µM (inactive) | > 100 µM (inactive) | > 100 µM (inactive)
COc1cc2c(cc1C)[n+]([O-])c(C)c(C(=O)C/C(=N/NC(=O)C[N+](C)(C)C)C(=O)Nc1cccc(Cl)c1C)[n+]2[O-] | > 100 µM (inactive) | > 100 µM (inactive) | > 100 µM (inactive) | > 100 µM (inactive) | > 100 µM (inactive) | > 100 µM (inactive) | > 100 µM (inactive) | > 100 µM (inactive) | > 100 µM (inactive) | > 100 µM (inactive) | > 100 µM (inactive) | > 100 µM (inactive) | > 100 µM (inactive) | > 100 µM (inactive) | > 100 µM (inactive) | > 100 µM (inactive)
Cc1cc(C)c(-n2c(-c3ccccc3)cs/c2=N\N=C2C=C(C(C)(C)C)C(=O)C(C(C)(C)C)=C2)c(C)c1 | > 100 µM (inactive) | > 100 µM (inactive) | > 100 µM (inactive) | 64.6 µM (inactive) | > 100 µM (inactive) | > 100 µM (inactive) | > 100 µM (inactive) |  | > 100 µM (inactive) | > 100 µM (inactive) | > 100 µM (inactive) | > 100 µM (inactive) | > 100 µM (inactive) | > 100 µM (inactive) | > 100 µM (inactive) | 91.4 µM (inactive)
CN(C)/N=N/c1ccccc1 | > 100 µM (inactive) | > 100 µM (inactive) | > 100 µM (inactive) | > 100 µM (inactive) | > 100 µM (inactive) | > 100 µM (inactive) | 38.1 µM (inactive) | 26.8 µM (inactive) | > 100 µM (inactive) | 12.7 µM (inactive) | > 100 µM (inactive) | > 100 µM (inactive) | 34.3 µM (inactive) |  | > 100 µM (inactive) | > 100 µM (inactive)
NNC(=O)CC(=O)Nc1ccccc1F | > 100 µM (inactive) |  | > 100 µM (inactive) | > 100 µM (inactive) | > 100 µM (inactive) | > 100 µM (inactive) | > 100 µM (inactive) | > 100 µM (inactive) | > 100 µM (inactive) | > 100 µM (inactive) |  | > 100 µM (inactive) | > 100 µM (inactive) | > 100 µM (inactive) | > 100 µM (inactive) | > 100 µM (inactive)
C(=C\c1c2oc(-c3ccccc3)cc(-c3ccccc3)c-2c2ccccc12)/C=C1\c2ccccc2-c2c(-c3ccccc3)cc(-c3ccccc3)[o+]c21.[O-][Cl+3]([O-])([O-])[O-] | > 100 µM (inactive) | > 100 µM (inactive) | > 100 µM (inactive) | > 100 µM (inactive) | > 100 µM (inactive) | > 100 µM (inactive) | > 100 µM (inactive) | > 100 µM (inactive) | > 100 µM (inactive) |  | > 100 µM (inactive) | > 100 µM (inactive) | > 100 µM (inactive) | > 100 µM (inactive) | > 100 µM (inactive) | > 100 µM (inactive)
COc1cccc2c1C1=CC(=O)CCC1C(C)(C)O2 (configuration not stated) | 44.1 µM (inactive) | > 100 µM (inactive) | 13.4 µM (inactive) | 47.6 µM (inactive) | 20.6 µM (inactive) | > 100 µM (inactive) |  | > 100 µM (inactive) | > 100 µM (inactive) | 45.6 µM (inactive) | > 100 µM (inactive) | 45.3 µM (inactive) | > 100 µM (inactive) | > 100 µM (inactive) | > 100 µM (inactive) | > 100 µM (inactive)
CC(C)N1CC2CC(CN(C(=O)c3ccc(Cl)cc3)C2)C1 | > 100 µM (inactive) | > 100 µM (inactive) | > 100 µM (inactive) |  | > 100 µM (inactive) | > 100 µM (inactive) |  | > 100 µM (inactive) | > 100 µM (inactive) | > 100 µM (inactive) | > 100 µM (inactive) | > 100 µM (inactive) | > 100 µM (inactive) | > 100 µM (inactive) | > 100 µM (inactive) | > 100 µM (inactive)
Cc1cc(C)c(C(=O)C(C)C(c2ccccc2)c2ccc(Cl)cc2)c(C)c1 (configuration not stated) | > 100 µM (inactive) |  | > 100 µM (inactive) | > 100 µM (inactive) and 56.1 µM (inactive) |  | 34.4 µM (inactive) and 43.5 µM (inactive) |  | 50.8 µM (inactive) | > 100 µM (inactive) | > 100 µM (inactive) and 96.4 µM (inactive) | > 100 µM (inactive) | > 100 µM (inactive) | > 100 µM (inactive) |  | > 100 µM (inactive) | > 100 µM (inactive)
Cc1c2cc[n+](C)cc2c(C)c2c1[nH]c1ccc(O)c(OCC(F)(F)F)c12 | 0.164 µM (active) | 4.63 µM (inactive) | 6.67 µM (inactive) | 4.97 µM (inactive) | 2.22 µM (inactive) | 9.82 µM (inactive) | 4.55 µM (inactive) | 7.06 µM (inactive) | 2.04 µM (inactive) |  | 11.2 µM (inactive) | 0.301 µM (active) | 5.86 µM (inactive) | 7.11 µM (inactive) | 1.46 µM (inactive) | 2.68 µM (inactive)
